This note sets out measurements from ChEMBL document CHEMBL5260811, “Drug development against tuberculosis: Impact of alkaloids” (Eur J Med Chem, 2017).

Structures are written as SMILES. Values after ≈ are worked out from the molar mass of the structure shown. Starred links: 1 amine or outer side, 2 acyl side, 3 side chain; linkers in the order of their positions; H or OH if unused. Positions of bridges follow the written chain, without caps; N, C: chain ends. Non-standard residues stand in square brackets, D forms with d. Residues, ends and D or L forms follow the SMILES beside them. *: point of attachment. X1 = NC1=N[C@@H]([C@H](N[*:1])C(=O)[*:2])C[C@H](O)N1; ΔAla(Z-3-ureido) = NC(=O)N/C=C(\N)C(=O)O; β3hOrn = NCCC[C@H](N)CC(=O)*; Dap = NC[C@H](N)C(=O)O

Assay [1] relates to Mycobacterium tuberculosis. The experiment in a line: Antimycobacterial activity against Mycobacterium tuberculosis Rv2163c harbouring pbpB gene. It counts as functional.
The test system of assay [2] is Mycobacterium tuberculosis. The experiment in a line: Antimycobacterial activity against Mycobacterium tuberculosis Rv2163c harbouring ftsI gene. Format: functional.
For assay [3], the system named is Mycobacterium tuberculosis. The experiment in a line: Antimycobacterial activity against Mycobacterium tuberculosis harbouring katG gene. Format: functional.
The subject of assay [4] is Mycobacterium tuberculosis. The experiment in a line: microbe, parasite or virus in culture.
Assay [5] has as its system Mycobacterium tuberculosis. The experiment in a line: microbe, parasite or virus in culture. The source holds these as a separate data set.
The subject of assay [6] is Mycobacterium tuberculosis. The experiment in a line: Antimycobacterial activity against Mycobacterium tuberculosis harbouring rrs gene. Format: functional.
For assay [7], the system named is Mycobacterium tuberculosis. The experiment in a line: Antimycobacterial activity against Mycobacterium tuberculosis Rv0005 harbouring gyrB gene. Format: functional.
Assay [8] concerns Mycobacterium tuberculosis. The experiment in a line: Antimycobacterial activity against Mycobacterium tuberculosis Rv0006 harbouring gyrA gene. Format: functional.
Assay [9] concerns Mycobacterium tuberculosis. The experiment in a line: Antimycobacterial activity against Mycobacterium tuberculosis Rv0701 harbouring rplC gene. Format: functional.
The subject of assay [10] is Mycobacterium tuberculosis. The experiment in a line: Antimycobacterial activity against Mycobacterium tuberculosis Rv3790 harbouring DprE1 gene. It counts as functional.
Assay [11] has as its system Mycobacterium tuberculosis. The experiment in a line: Antimycobacterial activity against Mycobacterium tuberculosis Rv2068c harbouring blaC gene. It counts as functional.
Assay [12] has as its system Mycobacterium tuberculosis. The experiment in a line: Antimycobacterial activity against Mycobacterium tuberculosis Rv1484 harbouring inhA gene. It counts as functional.
In assay [13] the test system is Mycobacterium tuberculosis. The experiment in a line: Antimycobacterial activity against Mycobacterium tuberculosis harbouring pncA gene. Format: functional.
The subject of assay [14] is Mycobacterium tuberculosis. The experiment in a line: Antimycobacterial activity against Mycobacterium tuberculosis Rv0667 harbouring rpoB gene. It counts as functional.
Assay [15] concerns Mycobacterium tuberculosis. The experiment in a line: microbe, parasite or virus in culture. The source holds these as a separate data set.
In assay [16] the test system is Mycobacterium tuberculosis. The experiment in a line: Antimycobacterial activity against Mycobacterium tuberculosis harbouring rpsL gene. Format: functional.
Assay [17] has as its system Mycobacterium tuberculosis. The experiment in a line: Antimycobacterial activity against Mycobacterium tuberculosis Rv2196 harbouring qcrB gene. Format: functional.
Assay [18] relates to Mycobacterium tuberculosis. The experiment in a line: Antimycobacterial activity against multi-drug resistant Mycobacterium tuberculosis. It counts as functional.
In assay [19] the test system is Mycobacterium tuberculosis. The experiment in a line: Antimycobacterial activity against Mycobacterium tuberculosis harbouring vph gene. Format: functional.

Consider `C[C@@H](O)[C@H]1C(=O)N2C(C(=O)O)=C(SCCNC=N)C[C@H]12` [IMIPENEM ANHYDROUS], for which the MIC in assay [1] and in assay [2] was 160 ng/mL (≈ 534 nM) each time.
For the compound `NNC(=O)c1ccncc1` [ISONIAZID], the MIC in assay [3], in assay [4] and in assay [5] was 10 ng/mL (≈ 72.9 nM) each time.
In turn, `NC[C@H]1O[C@H](O[C@H]2[C@H](O)[C@@H](O[C@H]3O[C@H](CO)[C@@H](O)[C@H](N)[C@H]3O)[C@H](N)C[C@@H]2N)[C@H](O)[C@@H](O)[C@@H]1O` [KANAMYCIN] came in with an MIC in assay [6] of 1000 ng/mL (≈ 2060 nM).
For `C[C@H]1COc2c(N3CCN(C)CC3)c(F)cc3c(=O)c(C(=O)O)cn1c23.C[C@H]1COc2c(N3CCN(C)CC3)c(F)cc3c(=O)c(C(=O)O)cn1c23.O` [LEVOFLOXACIN], the MIC in assay [7] and in [8] was 500 ng/mL throughout.
Take `CC(=O)NC[C@H]1CN(c2ccc(N3CCOCC3)c(F)c2)C(=O)O1` [LINEZOLID]: the MIC in assay [9] stood at 500 ng/mL (≈ 1480 nM).
In assay [10], `O=c1nc(N2CCN(CC3CCCCC3)CC2)sc2c([N+](=O)[O-])cc(C(F)(F)F)cc12` [MACOZINONE] displayed an MIC of 0.3 ng/mL (≈ 0.657 nM).
Take `C[C@@H](O)[C@H]1C(=O)N2C(C(=O)O)=C(S[C@@H]3CN[C@H](C(=O)N(C)C)C3)[C@H](C)[C@H]12` [MEROPENEM]: the MIC in [1] and in [11] was 500 ng/mL (≈ 1300 nM) each time.
On to `CC1COc2c(N3CCN(C)CC3)c(F)cc3c(=O)c(C(=O)O)cn1c23` (stereo unspecified) [OFLOXACIN], for which the MIC in assay [7] and in assay [8] was 125 ng/mL (≈ 346 nM) in each case.
`O=C([C@@H](O)CO)N1CC=C(c2c(F)cc(N3C[C@H](COc4ccon4)OC3=O)cc2F)CC1` [POSIZOLID]: the MIC in assay [9] turned out to be 250 ng/mL (≈ 537 nM).
Take `CCCc1cc(C(N)=S)ccn1` [PROTIONAMIDE]: the MIC in [12] stood at 300 ng/mL (≈ 1660 nM).
The compound `NC(=O)c1cnccn1` [PYRAZINAMIDE] displayed an MIC in [13] of 20000 ng/mL (≈ 162000 nM).
In assay [14], `CO[C@H]1/C=C/O[C@@]2(C)Oc3c(C)c(O)c4c(c3C2=O)C2=NC3(CCN(CC(C)C)CC3)NC2=C(NC(=O)/C(C)=C\C=C\[C@H](C)[C@H](O)[C@@H](C)[C@@H](O)[C@@H](C)[C@H](OC(C)=O)[C@@H]1C)C4=O` [RIFABUTIN] showed an MIC of 15 ng/mL (≈ 17.7 nM).
In assay [15], `CO[C@H]1/C=C/O[C@@]2(C)Oc3c(C)c(O)c4c(O)c(c(/C=N/N5CCN(C)CC5)c(O)c4c3C2=O)NC(=O)/C(C)=C\C=C\[C@H](C)[C@H](O)[C@@H](C)[C@@H](O)[C@@H](C)[C@H](OC(C)=O)[C@@H]1C` [RIFAMPIN] gave an MIC of 50 ng/mL (≈ 60.8 nM).
Consider `CO[C@H]1/C=C/O[C@@]2(C)Oc3c(C)c(O)c4c(O)c(c(/C=N/N5CCN(C6CCCC6)CC5)c(O)c4c3C2=O)NC(=O)/C(C)=C\C=C\[C@H](C)[C@H](O)[C@@H](C)[C@@H](O)[C@@H](C)[C@H](OC(C)=O)[C@@H]1C` [RIFAPENTINE], for which the MIC in [14] was 30 ng/mL (≈ 34.2 nM).
Regarding `CN[C@@H]1[C@H](O[C@H]2[C@H](O[C@H]3[C@H](O)[C@@H](O)[C@H](N=C(N)N)[C@@H](O)[C@@H]3N=C(N)N)O[C@@H](C)[C@]2(O)C=O)O[C@@H](CO)[C@H](O)[C@H]1O` [STREPTOMYCIN], the MIC in assay [16] and in assay [6] was 2000 ng/mL (≈ 3440 nM) each time.
In the case of `CC(=O)NC[C@H]1CN(c2ccc(N3CCSCC3)c(F)c2)C(=O)O1` [SUTEZOLID], the MIC in [9] was found to be 500 ng/mL (≈ 1410 nM).
`CCc1nc2ccc(Cl)cn2c1C(=O)NCc1ccc(N2CCC(c3ccc(OC(F)(F)F)cc3)CC2)cc1` [TELACEBEC] gave an MIC in assay [17] of 2.7 nM (≈ 1.5 ng/mL).
`O=C1c2ccccc2-n2c1nc1ccccc1c2=O` [TRYPTANTHRIN] gave an MIC in [18] of 0.016 ng/mL (≈ 0.0645 nM).
As for `NCCC[C@H](N)CC(=O)N[C@H]1CNC(=O)[C@H]([C@H]2C[C@H](O)NC(N)=N2)NC(=O)/C(=C/NC(N)=O)NC(=O)[C@H](CO)NC(=O)[C@H](CO)NC1=O` [VIOMYCIN] (β3hOrn-[Dap]SS[ΔAla(Z-3-ureido)][X1]; lactam 1-C), in [19], the MIC stood at 4000 ng/mL (≈ 5830 nM).
